From PubChem BioAssay AID2060352 (Molecular Pharmacology Branch, DTP, NCI, 2025)
pIC50: −log10 of the molar value.

System: 616215-338-R-J1-PDC spheroid with HUVEC/MSC, viability
Assay: Anticancer human tumor 616215-338-R-J1-PDC patient-derived colon adenocarcinoma cell line growth inhibition [TAK]
Details: for pIC50: curve of first compound; for viability, T/C: stronger effect = lower value
Excerpt: Combinatorial screen of targeted agents with TAK-243 and ipatasertib in multi-cell type tumor spheroids
A high-throughput screen of multi-cell type tumor spheroids was designed to identify active combinations of targeted small molecules and TAK-243 or ipatasertib. Complex spheroids include a stromal component modeled by human endothelial cells (HUVEC) and fibroblasts modeled by human mesenchymal stem cells (MSCs). The concentration ranges selected for each drug and investigational agent were based upon clinically achievable concentrations if the clinical Cmax of the agent was known.
Compounds. The drugs and investigational agents: TAK-243 (785004), ipatasertib (767898), everolimus (733504), selumetinib (741078), bortezomib (756655), trametinib (758246), ixazomib (758254), vemurafenib (761431), dabrafenib (764134), sapanisertib (764658), alpelisib (765974), and copanlisib (816437), were obtained from the National Cancer Institute (NCI) Developmental Therapeutics Program Chemical Repository. The FDA-approved anticancer drug set is available from the NCI Developmental Therapeutics Program. […] The stock solutions were prepared in dimethyl sulfoxide (DMSO, Sigma-Aldrich, St. Louis, MO, cat. D2650) at 800-fold the tested concentration and stored at -70 degrees C prior to their use. All drugs and investigational agents were tested over a range starting from a high concentration at or near the clinical Cmax and decreasing in half-log increments. If the clinical Cmax for an agent had not been determined, the highest concentration tested was 10 microM.
NCI60 Cell Culture. NCI60 cell lines were obtained from the NCI Developmental Therapeutics Program Tumor Repository. For each lot of cells, the Repository performed Applied Biosystems AmpFLSTR Identifiler testing with PCR amplification to confirm consistency with the published Identifier STR profile for each cell line. Cells were kept in continuous culture for no more than 20 passages. The optimal seeding densities for each of the cell lines at each time point assessed were determined prior to performing the concentration response studies. Briefly, the NCI60 human tumor lines were grown as monolayers in RPMI 1640 medium supplemented with 10% FBS and 2 mmol/L L-glutamine.
An additional 2 lines were from the NCI60 cell line panel including melanomas, MALME-3M and SK-MEL-2. Pooled donor human umbilical vein endothelial cells (HUVEC, Lonza, cat. CC-2519) and human mesenchymal stem cells (hMSC, Lonza, cat. PT-2501) were purchased from Lonza (Walkersville, MD).
PDMR cell lines were grown in complete medium (DC medium): Dulbecco's modified Eagle's medium (DMEM)/F12 supplemented with 5% fetal bovine serum (FBS), 2 mM L-glutamine, 100 U/mL penicillin and 100 µg/ml streptomycin, 0.4 µg/ml hydrocortisone, 10 ng/ml epidermal growth factor (EGF) recombinant human protein, 24 µg/mL adenine, and 0.1 mg/mL primocin. During culture from frozen stock vials, PDMR cells were cultured in the same medium containing 10 µM Y-27632 (see Table 3). The PDCs were cultured in complete DMEM/F12 media without 10 microM Y-27632 dihydrochloride for at least two passages prior to the screen. The pooled donor HUVEC and hMSC were cultured in endothelial cell growth medium 2 (PromoCell, Heidelberg, Germany, cat. C-22011) and mesenchymal stem cell growth medium 2 (PromoCell, cat. C-28009), respectively. For all experiments, HUVEC and hMSC were used at passages </=5.
For the pre-screen, cell seeding densities were determined from a titration spanning the range from 5,000 to 313 cells per well. The mct-spheroids including 60% malignant cells, 25% HUVEC and 15% MSC dispensed as a mixture into U-bottom Ultra-Low Attachment 384-well plates (Corning, NY)
High-throughput Drug Combination Screening.
Prior to their inoculation into 384-well plates, malignant cells, HUVEC, and hMSC were removed from T flasks using TrypLE express (Thermo Fisher Scientific, cat. 12605036) and harvested by centrifugation for 5 min at 233 x g. […]

[1] = second compound 0.3 µM, first compound 0.0316 µM
[2] = second compound 0.3 µM, first compound 0.1 µM
[3] = second compound 0.949 µM, first compound 0.0316 µM
[4] = second compound 0.949 µM, first compound 0.1 µM
[5] = second compound 3 µM, first compound 0.0316 µM
[6] = second compound 3 µM, first compound 0.1 µM
[7] = second compound 9.49 µM, first compound 0.0316 µM
[8] = second compound 9.49 µM, first compound 0.1 µM
[9] = second compound 30 µM, first compound 0.0316 µM
[10] = second compound 30 µM, first compound 0.1 µM
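Further: spheroids exposed to drugs for 7 days before readout.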

Q: What does the source list for `CC(C)(C)c1nc(-c2cccc(NS(=O)(=O)c3c(F)cccc3F)c2F)c(-c2ccnc(N)n2)s1` + CC(C)NCC(C(=O)N1CCN(c2ncnc3c2C(C)CC3O)CC1)c1ccc(Cl)cc1?
A: pIC50 (second compound 0.3 µM): 5.27; pIC50 (second compound 0.949 µM): 6.08; pIC50 (second compound 3 µM): 6.74; pIC50 (second compound 9.49 µM): > 7.50; pIC50 (second compound 30 µM): > 7.50; viability, T/C [1]: 130%; viability, T/C [2]: 140%; viability, T/C (second compound 0.3 µM, first compound 0.316 µM): 156%; viability, T/C (second compound 0.3 µM, first compound 1 µM): 138%; viability, T/C (second compound 0.3 µM, first compound 3.16 µM): 77.8%; viability, T/C (second compound 0.3 µM, first compound 10 µM): 17.5%; viability, T/C [3]: 141%; viability, T/C [4]: 132%; viability, T/C (second compound 0.949 µM, first compound 0.316 µM): 87%; viability, T/C (second compound 0.949 µM, first compound 1 µM): 43.1%; viability, T/C (second compound 0.949 µM, first compound 3.16 µM): 22%; viability, T/C (second compound 0.949 µM, first compound 10 µM): 10.1%; viability, T/C [5]: 63.5%; viability, T/C [6]: 69%; viability, T/C (second compound 3 µM, first compound 0.316 µM): 35.1%; viability, T/C (second compound 3 µM, first compound 1 µM): 16.8%; viability, T/C (second compound 3 µM, first compound 3.16 µM): 10.3%; viability, T/C (second compound 3 µM, first compound 10 µM): 7.4%; viability, T/C [7]: 21.2%; viability, T/C [8]: 19.9%; viability, T/C (second compound 9.49 µM, first compound 0.316 µM): 15.2%; viability, T/C (second compound 9.49 µM, first compound 1 µM): 8.91%; viability, T/C (second compound 9.49 µM, first compound 3.16 µM): 5.79%; viability, T/C (second compound 9.49 µM, first compound 10 µM): 6.27%; viability, T/C [9]: 8.84%; viability, T/C [10]: 10.3%; viability, T/C (second compound 30 µM, first compound 0.316 µM): 7.86%; viability, T/C (second compound 30 µM, first compound 1 µM): 6.37%; viability, T/C (second compound 30 µM, first compound 3.16 µM): 3.65%; viability, T/C (second compound 30 µM, first compound 10 µM): 3.34%

Q: Which results are given for `CC(C)CC(NC(=O)CNC(=O)c1cc(Cl)ccc1Cl)B1OC(=O)CC(CC(=O)O)(C(=O)O)O1` (stereo not given) + CC(C)NCC(C(=O)N1CCN(c2ncnc3c2C(C)CC3O)CC1)c1ccc(Cl)cc1?
A: pIC50 (second compound 0.3 µM): 7.68; pIC50 (second compound 0.949 µM): 7.68; pIC50 (second compound 3 µM): 7.85; pIC50 (second compound 9.49 µM): > 9.50; pIC50 (second compound 30 µM): > 9.50; viability, T/C (second compound 0.3 µM, first compound 0.000316 µM): 115%; viability, T/C (second compound 0.3 µM, first compound 0.001 µM): 123%; viability, T/C (second compound 0.3 µM, first compound 0.00316 µM): 122%; viability, T/C (second compound 0.3 µM, first compound 0.01 µM): 105%; viability, T/C [1]: 19.7%; viability, T/C [2]: 0.11%; viability, T/C (second compound 0.949 µM, first compound 0.000316 µM): 134%; viability, T/C (second compound 0.949 µM, first compound 0.001 µM): 136%; viability, T/C (second compound 0.949 µM, first compound 0.00316 µM): 132%; viability, T/C (second compound 0.949 µM, first compound 0.01 µM): 129%; viability, T/C [3]: 4.16%; viability, T/C [4]: 0.13%; viability, T/C (second compound 3 µM, first compound 0.000316 µM): 78.8%; viability, T/C (second compound 3 µM, first compound 0.001 µM): 68.6%; viability, T/C (second compound 3 µM, first compound 0.00316 µM): 57.7%; viability, T/C (second compound 3 µM, first compound 0.01 µM): 76.5%; viability, T/C [5]: 3.6%; viability, T/C [6]: 0.77%; viability, T/C (second compound 9.49 µM, first compound 0.000316 µM): 23.4%; viability, T/C (second compound 9.49 µM, first compound 0.001 µM): 21.8%; viability, T/C (second compound 9.49 µM, first compound 0.00316 µM): 23.6%; viability, T/C (second compound 9.49 µM, first compound 0.01 µM): 23.7%; viability, T/C [7]: 1.97%; viability, T/C [8]: 0.97%; viability, T/C (second compound 30 µM, first compound 0.000316 µM): 11.2%; viability, T/C (second compound 30 µM, first compound 0.001 µM): 9.33%; viability, T/C (second compound 30 µM, first compound 0.00316 µM): 10.7%; viability, T/C (second compound 30 µM, first compound 0.01 µM): 8.93%; viability, T/C [9]: 2.11%; viability, T/C [10]: 0.25%
